How the values were obtained:
[1] = target: Histone-lysine N-methyltransferase 2B (Homo sapiens, UniProt Q9UMN6); experiment: Inhibition of MLL4 (unknown origin)
[2] = AUC (0 to infinity) in mouse at 1 mg/kg, iv measured upto 24 hrs by LC-MS/MS analysis; format: ADME, organism-based; details: in vivo
[3] = target: Histone-lysine N-methyltransferase 2A (Homo sapiens, UniProt Q03164); experiment: Inhibition of MLL1 (unknown origin)
[4] = Toxicity in female NU/NU mouse xenografted with human RS4-11 cells assessed as change in body weight at 50 mg/kg, po administered for 21 days; format: organism-based; details: in vivo, 504 h, time 21 day
[5] = target: Protein arginine N-methyltransferase 8 (Homo sapiens, UniProt Q9NR22); experiment: Inhibition of PRMT8 (unknown origin)
[6] = target: Protein arginine N-methyltransferase 5 (Homo sapiens, UniProt O14744); experiment: Inhibition of PRMT5 (unknown origin)
[7] = AUC (0 to last) in mouse at 1 mg/kg, iv measured upto 24 hrs by LC-MS/MS analysis; format: ADME, organism-based; details: in vivo
[8] = Half life in mouse at 50 mg/kg, po measured upto 24 hrs by LC-MS/MS analysis; format: ADME, organism-based; details: in vivo
[9] = target: T1, Histone-arginine methyltransferase CARM1 (Homo sapiens, UniProt Q86X55); experiment: Inhibition of PRMT4 (unknown origin)
T1 sequence (Q86X55 whole entry): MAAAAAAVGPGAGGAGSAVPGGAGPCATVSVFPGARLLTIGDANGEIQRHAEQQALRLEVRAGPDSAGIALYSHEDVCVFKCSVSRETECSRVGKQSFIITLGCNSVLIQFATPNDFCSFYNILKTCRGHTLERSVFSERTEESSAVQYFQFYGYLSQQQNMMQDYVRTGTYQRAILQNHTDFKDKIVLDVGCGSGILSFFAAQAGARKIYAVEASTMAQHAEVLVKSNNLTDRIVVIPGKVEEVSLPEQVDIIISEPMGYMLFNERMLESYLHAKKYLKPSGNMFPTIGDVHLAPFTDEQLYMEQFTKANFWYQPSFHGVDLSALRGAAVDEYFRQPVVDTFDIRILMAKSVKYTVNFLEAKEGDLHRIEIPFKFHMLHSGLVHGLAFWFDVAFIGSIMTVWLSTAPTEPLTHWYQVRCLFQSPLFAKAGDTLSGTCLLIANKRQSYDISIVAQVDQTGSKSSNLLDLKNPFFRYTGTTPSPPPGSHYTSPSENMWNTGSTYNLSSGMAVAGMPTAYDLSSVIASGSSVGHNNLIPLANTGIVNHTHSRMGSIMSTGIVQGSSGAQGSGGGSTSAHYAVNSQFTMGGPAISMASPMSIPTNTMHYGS

[10] = Cmax in mouse at 50 mg/kg, po measured upto 24 hrs by LC-MS/MS analysis; format: ADME, organism-based; details: in vivo
[11] = target: Histone-lysine N-methyltransferase EZH2 (Homo sapiens, UniProt Q15910); experiment: Inhibition of EZH2 (unknown origin)
[12] = Half life in mouse at 1 mg/kg, iv measured upto 24 hrs by LC-MS/MS analysis; format: ADME, organism-based; details: in vivo
[13] = Cmax in mouse at 1 mg/kg, iv measured upto 24 hrs by LC-MS/MS analysis; format: ADME, organism-based; details: in vivo
[14] = AUC (0 to last) in mouse at 50 mg/kg, po measured upto 24 hrs by LC-MS/MS analysis; format: ADME, organism-based; details: in vivo
[15] = Oral bioavailability in mouse at 50 mg/kg measured upto 24 hrs by LC-MS/MS analysis; format: ADME, organism-based; details: in vivo
[16] = target: DNA (cytosine-5)-methyltransferase 1 (Homo sapiens, UniProt P26358); experiment: Inhibition of DNMT1 (unknown origin)
[17] = MRT (0 to t) in mouse at 1 mg/kg, iv measured upto 24 hrs by LC-MS/MS analysis; format: ADME, organism-based; details: in vivo
[18] = AUC (0 to infinity) in mouse at 50 mg/kg, po measured upto 24 hrs by LC-MS/MS analysis; format: ADME, organism-based; details: in vivo
[19] = Volume of distribution at steady state in mouse at 1 mg/kg, iv measured upto 24 hrs by LC-MS/MS analysis; format: ADME, organism-based; details: in vivo, read-out: Vdss
[20] = MRT (0 to t) in mouse at 50 mg/kg, po measured upto 24 hrs by LC-MS/MS analysis; format: ADME, organism-based; details: in vivo
[21] = target: T2, Histone-lysine N-methyltransferase EHMT1 (Homo sapiens, UniProt Q9H9B1); experiment: Inhibition of GLP (unknown origin)
T2 sequence (Q9H9B1 whole entry): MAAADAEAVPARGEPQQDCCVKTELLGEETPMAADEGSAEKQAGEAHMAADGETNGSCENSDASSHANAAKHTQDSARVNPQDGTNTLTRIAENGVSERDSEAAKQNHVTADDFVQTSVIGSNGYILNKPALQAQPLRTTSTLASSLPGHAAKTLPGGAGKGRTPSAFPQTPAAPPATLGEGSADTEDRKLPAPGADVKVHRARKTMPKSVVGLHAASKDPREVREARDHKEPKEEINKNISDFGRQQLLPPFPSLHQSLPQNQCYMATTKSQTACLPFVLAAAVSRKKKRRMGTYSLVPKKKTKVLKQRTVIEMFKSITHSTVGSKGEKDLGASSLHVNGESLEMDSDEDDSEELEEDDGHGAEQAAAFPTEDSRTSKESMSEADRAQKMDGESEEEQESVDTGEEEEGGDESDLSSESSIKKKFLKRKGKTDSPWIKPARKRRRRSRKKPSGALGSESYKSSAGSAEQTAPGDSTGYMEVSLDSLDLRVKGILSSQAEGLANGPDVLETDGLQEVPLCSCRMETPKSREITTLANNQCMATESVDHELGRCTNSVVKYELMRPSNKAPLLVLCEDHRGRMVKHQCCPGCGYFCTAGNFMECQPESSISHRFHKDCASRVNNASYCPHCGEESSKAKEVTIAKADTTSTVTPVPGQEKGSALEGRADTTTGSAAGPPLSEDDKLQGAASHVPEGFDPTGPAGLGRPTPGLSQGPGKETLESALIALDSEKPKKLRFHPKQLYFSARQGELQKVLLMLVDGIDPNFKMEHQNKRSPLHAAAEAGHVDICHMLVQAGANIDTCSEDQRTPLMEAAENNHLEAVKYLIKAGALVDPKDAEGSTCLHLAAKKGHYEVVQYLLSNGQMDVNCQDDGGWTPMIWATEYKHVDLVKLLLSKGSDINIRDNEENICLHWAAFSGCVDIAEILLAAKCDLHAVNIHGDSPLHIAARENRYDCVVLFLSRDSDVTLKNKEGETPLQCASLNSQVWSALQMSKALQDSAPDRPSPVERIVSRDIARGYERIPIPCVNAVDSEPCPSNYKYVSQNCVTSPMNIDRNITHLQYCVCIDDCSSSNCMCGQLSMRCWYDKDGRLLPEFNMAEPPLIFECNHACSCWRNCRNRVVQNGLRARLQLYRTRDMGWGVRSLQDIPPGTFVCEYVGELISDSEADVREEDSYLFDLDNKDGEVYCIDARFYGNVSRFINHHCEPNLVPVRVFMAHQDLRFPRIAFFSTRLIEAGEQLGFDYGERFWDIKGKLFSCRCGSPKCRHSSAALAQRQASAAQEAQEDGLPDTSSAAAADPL

[22] = target: T3, Histone-lysine N-methyltransferase NSD2 (Homo sapiens, UniProt O96028); experiment: Inhibition of NSD2-SET domain (unknown origin)
T3 sequence (O96028 whole entry): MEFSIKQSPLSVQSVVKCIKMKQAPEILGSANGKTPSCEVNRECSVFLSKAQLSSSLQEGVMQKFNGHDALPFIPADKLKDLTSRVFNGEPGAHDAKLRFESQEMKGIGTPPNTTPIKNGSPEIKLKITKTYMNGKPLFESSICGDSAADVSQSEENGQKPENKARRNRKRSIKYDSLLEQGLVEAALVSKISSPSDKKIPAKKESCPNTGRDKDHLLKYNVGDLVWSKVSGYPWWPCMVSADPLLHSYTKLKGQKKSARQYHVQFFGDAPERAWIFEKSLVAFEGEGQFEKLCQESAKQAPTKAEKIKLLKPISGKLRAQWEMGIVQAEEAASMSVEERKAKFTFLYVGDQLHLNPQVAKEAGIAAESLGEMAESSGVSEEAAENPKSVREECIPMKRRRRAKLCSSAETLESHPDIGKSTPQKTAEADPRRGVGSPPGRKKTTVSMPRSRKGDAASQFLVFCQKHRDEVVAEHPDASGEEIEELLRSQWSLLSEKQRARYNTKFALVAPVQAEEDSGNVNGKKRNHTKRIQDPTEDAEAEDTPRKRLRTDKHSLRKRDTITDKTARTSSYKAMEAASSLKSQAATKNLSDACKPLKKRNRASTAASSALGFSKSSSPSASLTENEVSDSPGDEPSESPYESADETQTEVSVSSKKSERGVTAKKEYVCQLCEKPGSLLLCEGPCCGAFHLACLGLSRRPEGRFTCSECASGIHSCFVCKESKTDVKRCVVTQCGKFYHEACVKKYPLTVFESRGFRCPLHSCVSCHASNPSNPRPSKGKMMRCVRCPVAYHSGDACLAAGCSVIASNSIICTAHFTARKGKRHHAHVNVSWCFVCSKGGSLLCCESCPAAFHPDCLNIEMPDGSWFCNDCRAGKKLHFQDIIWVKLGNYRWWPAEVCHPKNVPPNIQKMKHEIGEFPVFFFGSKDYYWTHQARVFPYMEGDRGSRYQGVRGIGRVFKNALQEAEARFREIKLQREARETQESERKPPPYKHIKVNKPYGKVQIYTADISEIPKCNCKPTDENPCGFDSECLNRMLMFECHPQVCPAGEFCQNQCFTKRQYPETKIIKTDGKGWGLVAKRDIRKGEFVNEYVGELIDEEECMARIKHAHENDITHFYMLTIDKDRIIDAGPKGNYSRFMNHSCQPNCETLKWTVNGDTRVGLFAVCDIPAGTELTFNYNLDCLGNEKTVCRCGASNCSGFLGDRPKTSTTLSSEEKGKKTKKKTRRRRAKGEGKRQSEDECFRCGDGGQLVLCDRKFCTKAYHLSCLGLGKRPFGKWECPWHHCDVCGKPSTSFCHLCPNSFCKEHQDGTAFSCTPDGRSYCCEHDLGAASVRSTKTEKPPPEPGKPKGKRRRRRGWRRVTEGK

DNA (cytosine-5)-methyltransferase 1, sequence (P26358 whole entry): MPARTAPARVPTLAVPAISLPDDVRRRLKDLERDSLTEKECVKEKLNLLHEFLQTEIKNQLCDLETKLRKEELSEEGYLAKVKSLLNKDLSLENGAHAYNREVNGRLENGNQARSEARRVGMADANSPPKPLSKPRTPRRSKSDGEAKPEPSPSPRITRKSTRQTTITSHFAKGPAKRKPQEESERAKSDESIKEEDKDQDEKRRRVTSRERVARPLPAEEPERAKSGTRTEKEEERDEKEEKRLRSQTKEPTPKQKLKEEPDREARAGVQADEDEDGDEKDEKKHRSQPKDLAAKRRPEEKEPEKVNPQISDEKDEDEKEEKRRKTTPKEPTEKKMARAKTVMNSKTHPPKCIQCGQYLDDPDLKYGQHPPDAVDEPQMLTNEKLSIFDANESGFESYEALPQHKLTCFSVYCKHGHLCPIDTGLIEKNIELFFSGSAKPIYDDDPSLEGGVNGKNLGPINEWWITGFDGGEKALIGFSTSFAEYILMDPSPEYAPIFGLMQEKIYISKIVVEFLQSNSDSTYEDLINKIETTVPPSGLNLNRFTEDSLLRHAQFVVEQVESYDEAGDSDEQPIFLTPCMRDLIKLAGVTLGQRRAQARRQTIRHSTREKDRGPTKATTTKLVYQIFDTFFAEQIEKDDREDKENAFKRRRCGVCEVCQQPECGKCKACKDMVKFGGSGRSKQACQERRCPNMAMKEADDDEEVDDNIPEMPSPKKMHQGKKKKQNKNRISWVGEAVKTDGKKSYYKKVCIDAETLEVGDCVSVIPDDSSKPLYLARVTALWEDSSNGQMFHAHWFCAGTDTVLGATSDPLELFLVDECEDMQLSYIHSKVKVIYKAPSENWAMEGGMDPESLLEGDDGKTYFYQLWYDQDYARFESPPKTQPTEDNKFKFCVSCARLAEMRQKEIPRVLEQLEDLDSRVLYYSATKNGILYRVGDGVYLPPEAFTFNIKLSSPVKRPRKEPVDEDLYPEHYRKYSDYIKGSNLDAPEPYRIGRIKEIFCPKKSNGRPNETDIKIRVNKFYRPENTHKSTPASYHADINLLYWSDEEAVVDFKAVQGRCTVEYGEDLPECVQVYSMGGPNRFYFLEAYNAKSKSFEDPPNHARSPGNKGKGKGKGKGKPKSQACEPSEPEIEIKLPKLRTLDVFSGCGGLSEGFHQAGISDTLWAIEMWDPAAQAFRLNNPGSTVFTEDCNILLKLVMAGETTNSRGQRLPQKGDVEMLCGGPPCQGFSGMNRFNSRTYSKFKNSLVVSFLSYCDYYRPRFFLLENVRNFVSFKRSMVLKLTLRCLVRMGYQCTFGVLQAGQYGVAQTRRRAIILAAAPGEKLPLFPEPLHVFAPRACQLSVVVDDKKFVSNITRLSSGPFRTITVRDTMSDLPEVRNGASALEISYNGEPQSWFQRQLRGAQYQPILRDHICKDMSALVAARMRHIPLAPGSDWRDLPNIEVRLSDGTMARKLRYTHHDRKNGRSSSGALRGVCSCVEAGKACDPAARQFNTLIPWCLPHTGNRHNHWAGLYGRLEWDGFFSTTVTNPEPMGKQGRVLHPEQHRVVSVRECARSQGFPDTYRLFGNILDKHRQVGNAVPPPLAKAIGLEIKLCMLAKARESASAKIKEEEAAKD
Histone-lysine N-methyltransferase EZH2, sequence (Q15910 whole entry): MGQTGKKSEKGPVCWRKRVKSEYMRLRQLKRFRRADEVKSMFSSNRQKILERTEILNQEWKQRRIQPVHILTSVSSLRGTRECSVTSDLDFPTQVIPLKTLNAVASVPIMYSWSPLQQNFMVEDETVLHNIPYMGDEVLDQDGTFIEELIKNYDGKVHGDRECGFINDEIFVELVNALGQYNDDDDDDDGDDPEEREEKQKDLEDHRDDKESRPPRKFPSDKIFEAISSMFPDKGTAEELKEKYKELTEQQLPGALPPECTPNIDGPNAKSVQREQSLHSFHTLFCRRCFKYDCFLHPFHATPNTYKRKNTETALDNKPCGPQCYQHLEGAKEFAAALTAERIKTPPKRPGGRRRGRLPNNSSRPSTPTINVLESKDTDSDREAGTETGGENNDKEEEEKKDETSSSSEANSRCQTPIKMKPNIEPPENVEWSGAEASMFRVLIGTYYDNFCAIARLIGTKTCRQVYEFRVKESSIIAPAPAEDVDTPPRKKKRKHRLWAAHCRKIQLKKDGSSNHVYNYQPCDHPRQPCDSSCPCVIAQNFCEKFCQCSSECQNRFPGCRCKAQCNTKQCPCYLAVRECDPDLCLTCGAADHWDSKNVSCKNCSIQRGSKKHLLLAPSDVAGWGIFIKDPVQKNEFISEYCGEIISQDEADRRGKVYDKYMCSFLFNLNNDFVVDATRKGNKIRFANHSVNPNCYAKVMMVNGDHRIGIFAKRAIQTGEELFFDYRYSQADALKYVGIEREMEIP
Protein arginine N-methyltransferase 5, sequence (O14744 whole entry): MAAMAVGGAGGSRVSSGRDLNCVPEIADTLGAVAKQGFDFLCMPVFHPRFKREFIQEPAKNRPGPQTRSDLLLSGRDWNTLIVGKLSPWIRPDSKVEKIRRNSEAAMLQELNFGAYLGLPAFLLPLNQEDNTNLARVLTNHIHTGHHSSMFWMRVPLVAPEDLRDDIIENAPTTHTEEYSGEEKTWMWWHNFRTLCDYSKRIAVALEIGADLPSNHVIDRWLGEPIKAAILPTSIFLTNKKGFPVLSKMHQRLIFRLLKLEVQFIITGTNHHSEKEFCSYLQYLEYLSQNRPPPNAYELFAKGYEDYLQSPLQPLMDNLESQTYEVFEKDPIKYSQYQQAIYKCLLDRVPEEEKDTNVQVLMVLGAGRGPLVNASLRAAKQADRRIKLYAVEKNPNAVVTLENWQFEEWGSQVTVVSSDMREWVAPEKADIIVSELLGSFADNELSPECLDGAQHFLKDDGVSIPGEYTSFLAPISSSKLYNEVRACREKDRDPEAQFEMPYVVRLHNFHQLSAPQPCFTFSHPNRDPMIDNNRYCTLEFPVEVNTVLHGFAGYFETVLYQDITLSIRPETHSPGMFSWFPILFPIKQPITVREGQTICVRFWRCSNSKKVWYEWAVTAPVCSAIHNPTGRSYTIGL
Protein arginine N-methyltransferase 8, sequence (Q9NR22 whole entry): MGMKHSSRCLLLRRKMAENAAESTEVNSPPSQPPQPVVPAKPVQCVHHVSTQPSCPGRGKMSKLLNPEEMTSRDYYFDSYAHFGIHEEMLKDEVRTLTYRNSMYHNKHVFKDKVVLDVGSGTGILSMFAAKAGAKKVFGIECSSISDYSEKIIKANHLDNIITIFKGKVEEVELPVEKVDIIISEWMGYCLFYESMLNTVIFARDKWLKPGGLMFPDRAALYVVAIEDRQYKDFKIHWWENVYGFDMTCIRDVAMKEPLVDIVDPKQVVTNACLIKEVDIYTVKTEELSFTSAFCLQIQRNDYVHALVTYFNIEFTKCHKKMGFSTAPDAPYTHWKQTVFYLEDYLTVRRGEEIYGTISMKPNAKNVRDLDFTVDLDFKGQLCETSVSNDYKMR

SMILES: COc1cc2c(NC3CCN(C(C)C)CC3)nc(C#N)nc2cc1OCCCN1CCOCC1
- IC50 [1]: > 10 µM
- AUC [2]: 134 ng·h/mL
- IC50 [3]: > 10 µM
- Activity [4]: Non-Toxic
- IC50 [5]: > 10 µM
- IC50 [6]: > 10 µM
- AUClast [7]: 123.9 ng·h/mL
- half-life [8]: 6.35 h
- IC50 [9]: 8.96 µM
- Cmax [10]: 1160 nM
- IC50 [11]: > 10 µM
- t1/2 [12]: 8 h
- Cmax [13]: 280 nM
- AUClast [14]: 1694.02 ng·h/mL
- bioavailability [15]: 27.3%
- IC50 [16]: > 10 µM
- MRT last at 24 h [17]: 6.12 h
- AUC [18]: 1760 ng·h/mL
- Vd [19]: 46 L/kg
- MRT last at 24 h [20]: 5.3 h
- IC50 [21]: > 10 µM

SMILES: COc1cc(F)c(-c2cc(Cn3cnc4c(N)ncnc43)c(N3CCC[C@](N)([C@H](O)C(F)F)C3)cn2)cc1F
- IC50 [22]: < 0.1 µM

Source: ChEMBL document CHEMBL5614426 (J Med Chem, 2024)
